Like-named read-outs stand apart in the source and are kept apart here.
Legend:
hA2A AR = target: T1, hA2A AR (Homo sapiens, UniProt P29274); test: [3H]ZM241385 competition binding to hA2A CHO cell membranes; settings: for Ki: [3H]ZM241385, hA2A CHO cells, means ± SEM; for I% hA2A: percentage of inhibition at 1µM, [3H]ZM241385
T1 construct: expressed in transfected cells; host or cells: CHO cells
Experimental: (§1) CHO cells transfected with hA1, hA2A, hA2B, and hA3 ARs were grown adherently and maintained in Dulbecco’s modified Eagle’s medium (Sigma-Aldrich, Milan, Italy) with nutrient mixture F12, containing 10% fetal calf serum, penicillin (100 U/mL), streptomycin (100 μg/mL), l-glutamine (2 mM) and geneticin (G418; 0.2 mg/mL) at 37°C in 5% CO2/95% air until the use in cAMP assays. For membrane preparation, the culture medium was removed, and the cells were washed with phosphate-buffered saline and scraped off T75 flasks in ice-cold hypotonic buffer (5 mM Tris HCl, 1 mM EDTA, pH 7.4). The cell suspension was homogenized with a Polytron, centrifuged for 30 min at 40000 g at 4°C, and the resulting membrane pellet was used for competition binding experiments.
(§2) All synthesized compounds have been tested for their affinity to hA1, hA2A, and hA3 ARs. Competition experiments to hA1 ARs were carried out incubating 1 nM [^3H]-8-cyclopentyl-1,3-dipropylxanthine ([^3H]-DPCPX) with membrane suspension (50 μg of protein/100 μL) and different concentrations of the examined compounds at 25°C for 90 min in 50 mM Tris HCl, pH 7.4. […] Inhibition experiments to hA2A ARs were performed incubating the radioligand [^3H]-ZM241385 (4-(2-[7-Amino-2-(2-furyl)[1,2,4]triazolo[2,3-a][1,3,5]triazin-5-ylamino]ethyl)phenol) (1 nM) with the membrane suspension (50 μg of protein/100 μL) and different concentrations of the examined compounds for 60 min at 4°C in 50 mM Tris HCl (pH 7.4), 10 mM MgCl2. Non-specific binding was determined in the presence of ZM241385 (1 μM) and was about 20% of the total binding. Competition binding experiments to A3 ARs were carried out incubating the membrane suspension (50 μg of protein/100 μL) with 0.5 nM [^125I]-N^6-(4-aminobenzyl)-N-methylcarboxamidoadenosine ([^125I]-ABMECA) in the presence of different concentration of the examined compounds for an incubation time of 120 min at 4°C in 50 mM Tris HCl (pH 7.4), 10 mM MgCl2, and 1 mM EDTA. Non-specific binding was defined as binding in the presence of 1μM ABMECA and was always < 10% of the total binding. Bound and free radioactivity were separated by filtering the assay mixture through Whatman GF/B glass fiber filters using a Brandel cell harvester (Brandel Instruments, Unterföhring, Germany). The filter bound radioactivity was counted by Packard Tri Carb 2810 TR scintillation counter (Perkin Elmer, Boston, MA, USA).
(§3) The protein concentration was determined according to a Bio-Rad method with bovine albumin as a standard reference. Inhibitory binding constant (Ki) values were calculated from those of IC50 according to Cheng & Prusoff equation Ki = IC50/(1+[C*]/KD*), where [C*] is the concentration of the radioligand and KD* its dissociation constant. Ki and IC50 values were calculated by non-linear regression analysis using the equation for a sigmoid concentration-response curve (Graph-PAD Prism, San Diego, CA, USA).

hA2B AR [1] = target: T2, hA2B AR (Homo sapiens, UniProt P29275); test: cAMP assay, stimulation of cAMP production in hA2B CHO cells (agonism); assay type: cell-based; settings: for Emax at 1 µM: CHO, compound at 1µM, in comparison with NECA (1µM = 100%), read-out: Efficacy hA2B (cAMP assays) (converted); for EC50: hA2B CHO cells, means ± SEM of four assays
T2 construct: expressed in transfected cells; host or cells: CHO cells
T2 sequence (P29275 1-332): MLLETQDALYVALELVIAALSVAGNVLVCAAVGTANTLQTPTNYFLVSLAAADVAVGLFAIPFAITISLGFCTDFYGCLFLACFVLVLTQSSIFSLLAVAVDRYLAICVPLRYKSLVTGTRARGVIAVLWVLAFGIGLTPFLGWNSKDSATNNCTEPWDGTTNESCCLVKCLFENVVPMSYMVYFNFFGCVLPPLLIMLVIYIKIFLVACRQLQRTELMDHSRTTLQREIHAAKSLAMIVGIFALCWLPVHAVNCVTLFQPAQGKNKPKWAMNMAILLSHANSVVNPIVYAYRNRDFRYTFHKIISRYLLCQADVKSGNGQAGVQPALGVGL
Experimental: (§4) The amino-3,5-dicyanopyridines 1–20 were tested for their affinity at hA1, hA2A, and hA3 ARs, stably transfected in Chinese Hamster Ovary (CHO) cells, and were also studied as hA2B agonists by evaluating their stimulatory effect on cAMP production in CHO cells, stably expressing the hA2B AR.
as §1
CHO cells transfected with hAR subtypes were washed with phosphate-buffered saline, detached with trypsin and centrifuged for 10 min at 200 g. Cells were seeded in 96-well white half-area microplate (Perkin Elmer, Boston, USA) in a stimulation buffer composed of Hank Balanced Salt Solution (Sigma-Aldrich, Milan, Italy), 5 mM HEPES, 0.5 mM Ro 20-1724, and 0.1% BSA. cAMP levels were then quantified by using the AlphaScreen cAMP Detection Kit (Perkin Elmer) following the manufacturer’s instructions. At the end of the experiments, plates were read with the Perkin Elmer EnSight Multimode Plate Reader.

hA1 AR [2] = target: T3, hA1 AR (Homo sapiens, UniProt P30542); test: Modulation of Forskolin-stimulated cAMP levels in hA1 CHO cells; assay type: cell-based; settings: Forskolin 5 µM; for EC50: means ± SEM of four experiments, read-out: EC50 (potency to increase Forskolin-stimulated cAMP levels, hA1 CHO cells); for Efficacy (modulation of Forskolin-stimulated cAMP, hA1 CHO cells): normalized to DPCPX (set at 100%)
T3 construct: expressed in transfected cells; host or cells: CHO cells
T3 sequence (P30542 1-326): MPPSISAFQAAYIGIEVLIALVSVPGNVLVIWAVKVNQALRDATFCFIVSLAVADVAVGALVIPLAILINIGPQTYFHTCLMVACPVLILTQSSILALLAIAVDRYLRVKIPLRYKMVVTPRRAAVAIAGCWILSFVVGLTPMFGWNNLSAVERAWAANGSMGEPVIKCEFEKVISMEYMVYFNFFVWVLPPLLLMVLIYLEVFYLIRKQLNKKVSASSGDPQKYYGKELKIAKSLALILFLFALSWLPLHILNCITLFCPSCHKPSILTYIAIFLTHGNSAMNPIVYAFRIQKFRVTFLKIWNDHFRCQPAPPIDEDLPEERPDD
Experimental: as §4
For membrane preparation, the culture medium was removed, and the cells were washed with phosphate-buffered saline and scraped off T75 flasks in ice-cold hypotonic buffer (5 mM Tris HCl, 1 mM EDTA, pH 7.4). The cell suspension was homogenized with a Polytron, centrifuged for 30 min at 40000 g at 4°C, and the resulting membrane pellet was used for competition binding experiments.
CHO cells transfected with hAR subtypes were washed with phosphate-buffered saline, detached with trypsin and centrifuged for 10 min at 200 g. […] At the end of the experiments, plates were read with the Perkin Elmer EnSight Multimode Plate Reader.

hA3 AR = target: T4, hA3 AR (Homo sapiens, UniProt P0DMS8); test: [125I]AB-MECA competition binding to hA3 CHO cell membranes; settings: for Ki: hA3 CHO cells, means ± SEM; for inhibition at 1 µM: percentage of inhibition at 1µM
T4 construct: expressed in transfected cells; host or cells: CHO cells
T4 sequence (P0DMS8 1-318): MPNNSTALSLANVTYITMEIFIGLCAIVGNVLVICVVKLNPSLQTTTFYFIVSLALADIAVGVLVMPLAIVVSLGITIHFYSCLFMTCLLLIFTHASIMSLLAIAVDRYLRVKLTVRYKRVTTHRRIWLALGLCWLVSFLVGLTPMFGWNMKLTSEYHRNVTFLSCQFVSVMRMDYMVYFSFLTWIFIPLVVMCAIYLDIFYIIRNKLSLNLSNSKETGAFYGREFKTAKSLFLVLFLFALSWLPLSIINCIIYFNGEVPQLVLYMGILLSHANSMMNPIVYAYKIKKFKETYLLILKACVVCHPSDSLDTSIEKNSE
Experimental: as §1, §2, §3

hA1 AR [3] = target: T3, hA1 AR; test: [3H]DPCPX competition binding to hA1 CHO cell membranes
Experimental: as §1, §2, §3

hA2B AR [4] = target: T2, hA2B AR; settings: cited from earlier work
A2BAR = system: A2BAR; design: method as in PMID 31132418; settings: rat CA1 hippocampus, cited from earlier work
[5] = at 1µM, in comparison with NECA (1µM = 100%)

T1 sequence (P29274 whole entry): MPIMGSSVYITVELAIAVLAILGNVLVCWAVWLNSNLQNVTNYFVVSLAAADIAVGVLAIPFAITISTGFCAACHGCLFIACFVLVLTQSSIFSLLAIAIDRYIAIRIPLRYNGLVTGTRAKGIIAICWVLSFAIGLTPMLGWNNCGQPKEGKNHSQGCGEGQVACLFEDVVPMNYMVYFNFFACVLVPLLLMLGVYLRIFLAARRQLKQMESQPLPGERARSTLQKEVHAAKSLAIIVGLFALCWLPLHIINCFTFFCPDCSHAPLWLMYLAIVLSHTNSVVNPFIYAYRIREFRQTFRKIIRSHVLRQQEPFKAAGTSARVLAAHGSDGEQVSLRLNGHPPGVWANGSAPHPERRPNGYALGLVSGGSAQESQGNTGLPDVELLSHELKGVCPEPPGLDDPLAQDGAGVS

Structure (SMILES) | Emax at 1 µM (hA2B AR [1]) [%] | EC50 (hA2B AR [1]) [nM] | EC50 (hA1 AR [2]) [nM] | Efficacy (modulation of Forskolin-stimulated cAMP, hA1 CHO cells) (hA1 AR [2]) [%] | melting point | Ki (hA1 AR [3]) [nM] | I% hA2A (hA2A AR) [%] | inhibition at 1 µM (hA3 AR) [%] | other results
CSc1ccc(-c2c(C#N)c(N)nc(SCc3ncc[nH]3)c2C#N)cc1 [Compound 11, 2-Amino-6-[(1H-imidazol-2-ylmethyl)sulfanyl]-4-[4-(methylsulfanyl)phenyl]pyridine-3,5-dicarbonitrile] | 30 | 36 ± 3 | 8.87 ± 0.64 | 52 ± 4 | 257 to 259 °C (dec.) | 8.32 ± 0.78 |  |  | Ki (hA2A AR): 227 ± 21 nM; Ki (hA3 AR): 388 ± 29 nM
N#Cc1c(N)nc(SCc2ncc[nH]2)c(C#N)c1-c1ccccc1 [LUF5833, 2-amino-6-[(1H-imidazol-2-ylmethyl)sulfanyl]-4-phenylpyridine-3,5-dicarbonitrile] |  |  |  |  |  |  |  |  | Efficacy hA2B (cAMP assays) (hA2B AR [4]; in comparison with NECA): 81%
N#Cc1c(N)nc(SCc2ncc[nH]2)c(C#N)c1-c1ccc(F)cc1 [Compound 8, 2-Amino-4-(4-fluorophenyl)-6-[(1H-imidazol-2-ylmethyl)sulfanyl]pyridine-3,5-dicarbonitrile] | 76 | 18 ± 2 | 1.34 ± 0.11 | 34 ± 3 | 223 to 225 °C (dec.) | 0.78 ± 0.08 |  |  | Ki (hA2A AR): 139 ± 12 nM; Ki (hA3 AR): 410 ± 38 nM
C=CCOc1ccc(-c2c(C#N)c(N)nc(SCc3ncc[nH]3)c2C#N)cc1 [Compound 3, 2-Amino-6-[(1H-imidazol-2-ylmethyl)sulfanyl]-4-[4-(prop-2-en-1-yloxy)phenyl]pyridine-3,5-dicarbonitrile] | 56 | 27 ± 3 | 19.6 ± 1.7 | 39 ± 4 |  | 16 ± 2 | 17 | 8 | 
N#Cc1c(N)nc(SCc2ncc[nH]2)c(C#N)c1-c1ccc(C(F)(F)F)cc1 [Compound 9, 2-Amino-6-[(1H-imidazol-2-ylmethyl)sulfanyl]-4-[4-(trifluoromethyl)phenyl]pyridine-3,5-dicarbonitrile] | 4 | > 1000 |  |  | 233 to 235 °C (dec.) | 419 ± 32 | 32 | 21 | 
CCOc1ccc(-c2c(C#N)c(N)nc(SCc3ncc[nH]3)c2C#N)cc1 [Compound 5, 2-(((1H-Imidazol-2-yl)methyl)thio)-6-amino-4-(4-ethoxyphenyl)pyridine-3,5-dicarbonitrile] |  |  |  |  |  |  |  |  | Efficacy hA2B (cAMP assays) (hA2B AR [4]; [5]): 62%
N#Cc1c(N)nc(SCc2ncc[nH]2)c(C#N)c1-c1ccc(OCC2CC2)cc1 [Compound P453, 2-{[(1H-imidazol-2-yl)methyl]thio}-6-amino-4-[4-(cyclopropylmethoxy)phenyl]pyridine-3,5-dicarbonitrile] |  |  |  |  |  |  |  |  | Efficacy hA2B (cAMP assays) (hA2B AR [4]; [5]): 70%; Effect on PPF (paired pulse facilitation) (A2BAR): decreases PPF; Effect on A1AR-mediated fEPSP inhibition during OGD (A2BAR; two-minute oxygen and glucose deprivation insult): delays A1AR-mediated fEPSP inhibition
CCCn1c(=O)c2[nH]c(C3CCCC3)nc2n(CCC)c1=O [DPCPX, 8-Cyclopentyl-1,3-dipropylxanthine, reference compound] |  |  |  | 100 ± 9 |  |  |  |  | 
COC(=O)CSc1nc(N)c(C#N)c(-c2ccc(OC)cc2)c1C#N [Compound 20, Methyl{[6-amino-3,5-dicyano-4-(4-methoxyphenyl)pyridin-2-yl]sulfanyl}acetate] | 1 | > 1000 |  |  | 218 to 220 °C | 987 ± 81 | 1 | 5 | 

Source: paper PMC6958422 (Pharmaceuticals, 2019)
